These results are taken from US20150141381A1, “TETRACYCLINE COMPOUNDS HAVING TARGET THERAPEUTIC ACTIVITIES” (Paratek Pharmaceuticals, Inc., priority 2001, published 2015).

One assay concerns S. aureus RN450. Description: In Vitro Anti-Bacterial Activity Assay (MIC), gram positive. Format: cell-based. As to conditions: Staphylococcus aureus, RN450, 18 h.
Another assay concerns E. coli mL308 225. The assay can be described thus: In Vitro Anti-Bacterial Activity Assay (MIC), gram negative. Format: cell-based. As to conditions: Escherichia coli, ML308225, 18 h.
The mark [1] stands for this setting: gram positive bacteria, read-out: Antibiotic Activity Gram + (MIC).
Setting [2] is: gram negative bacteria, read-out: Antibiotic Activity Gram − (MIC).
Setting [3] is: MIC class, Table 3 (Continued), read-out: Gram+ activity.
The mark [4] stands for this setting: MIC class, Table 3 (Continued), read-out: Gram− activity.
Where [5] appears, read: MIC class, Table 3, read-out: Antibiotic Activity Gram +.
Where [6] appears, read: MIC class, Table 3, read-out: Antibiotic Activity Gram −.

The structures appear in SMILES notation. Where two headings read alike, the source gives them in different places.

In the case of `CN(C)c1cc(C#CC2=CCCC2)c(O)c2c1C[C@H]1C[C@H]3[C@H](N(C)C)C(O)=C(C(N)=O)C(=O)[C@@]3(O)C(O)=C1C2=O`, the MIC in the assay with S. aureus RN450 (setting [1]) and in the assay with E. coli mL308 225 (setting [2]) was less than 4 µg/mL in each case.

Regarding `CCOCc1cccc(-c2ccc(O)c3c2C[C@H]2C[C@H]4[C@H](N(C)C)C(O)=C(C(N)=O)C(=O)[C@@]4(O)C(O)=C2C3=O)c1`, the MIC in the assay on S. aureus RN450 (setting [3]) and in the assay with E. coli mL308 225 (setting [4]) was less than 4 µg/mL in each case.

`CO/N=C/c1ccc(OC)c(-c2ccc(O)c3c2C[C@H]2C[C@H]4[C@H](N(C)C)C(O)=C(C(N)=O)C(=O)[C@@]4(O)C(O)=C2C3=O)c1`: the MIC in the assay on S. aureus RN450 (setting [1]) and with E. coli mL308 225 (setting [2]) was less than 4 µg/mL in each case.

Consider `CN(C)[C@@H]1C(O)=C(C(N)=O)C(=O)[C@@]2(O)C(O)=C3C(=O)c4c(O)ccc(CN5CCCC5)c4C[C@H]3C[C@@H]12`, for which the MIC in the assay on S. aureus RN450 (setting [1]) and with E. coli mL308 225 (setting [2]) was less than 4 µg/mL throughout.

With `Cc1noc(C)c1-c1ccc(O)c2c1C[C@H]1C[C@H]3[C@H](N(C)C)C(O)=C(C(N)=O)C(=O)[C@@]3(O)C(O)=C1C2=O`, the MIC in the assay on S. aureus RN450 (setting [1]) and in the assay on E. coli mL308 225 (setting [2]) was less than 4 µg/mL each time.

On to `CN(C)c1cc(NCc2cc[nH]n2)c(O)c2c1C[C@H]1C[C@H]3[C@H](N(C)C)C(O)=C(C(N)=O)C(=O)[C@@]3(O)C(O)=C1C2=O`, for which the MIC in the assay on S. aureus RN450 (setting [1]) and in the assay with E. coli mL308 225 (setting [2]) was greater than 4 µg/mL throughout.

For the compound `CN(C)[C@@H]1C(O)=C(C(N)=O)C(=O)[C@@]2(O)C(O)=C3C(=O)c4c(O)ccc(C#Cc5cccnc5)c4C[C@H]3C[C@@H]12`, the MIC in the assay on S. aureus RN450 (setting [3]) and with E. coli mL308 225 (setting [4]) was less than 4 µg/mL in each case.

Regarding `CN(C)c1cc(-c2ccoc2)c(O)c2c1C[C@H]1C[C@H]3[C@H](N(C)C)C(O)=C(C(N)=O)C(=O)[C@@]3(O)C(O)=C1C2=O` [KU], the MIC was less than 4 µg/mL in the assay with S. aureus RN450 (setting [5]) and greater than 4 µg/mL in the assay on E. coli mL308 225 (setting [6]).

As to `CCCCCC(=O)c1ccc(O)c2c1C[C@H]1C[C@H]3[C@H](N(C)C)C(O)=C(C(N)=O)C(=O)[C@@]3(O)C(O)=C1C2=O`, the MIC in the assay on S. aureus RN450 (setting [1]) and in the assay with E. coli mL308 225 (setting [2]) was less than 4 µg/mL each time.

In the case of `CN(C)[C@@H]1C(O)=C(C(N)=O)C(=O)[C@@]2(O)C(O)=C3C(=O)c4c(O)ccc(-c5cncc(Br)c5)c4C[C@H]3C[C@@H]12`, the MIC in the assay with S. aureus RN450 (setting [1]) and with E. coli mL308 225 (setting [2]) was less than 4 µg/mL throughout.

`CCCCOC(=O)C#Cc1cc(N(C)C)c2c(c1O)C(=O)C1=C(O)[C@]3(O)C(=O)C(C(N)=O)=C(O)[C@@H](N(C)C)[C@@H]3C[C@@H]1C2` [DL]: the MIC with S. aureus RN450 (setting [5]) and with E. coli mL308 225 (setting [6]) was greater than 4 µg/mL each time.

Turning to `CCc1cc(CNCCC(F)(F)F)c(O)c2c1C[C@H]1C[C@H]3[C@H](N(C)C)C(O)=C(C(N)=O)C(=O)[C@@]3(O)C(O)=C1C2=O`, the MIC with S. aureus RN450 (setting [1]) and in the assay with E. coli mL308 225 (setting [2]) was less than 4 µg/mL throughout.

Regarding `CC1C(C(=O)[C@@H]2CC(=O)C(C(N)=O)=C(O)[C@H]2N(C)C)=C(C(=O)NCC(C)(C)C)C(=O)c2c(O)cccc21` (stereo partly shown), the MIC with S. aureus RN450 (setting [1]) and in the assay with E. coli mL308 225 (setting [2]) was greater than 4 µg/mL throughout.

Consider `CN(C)c1cc(NC(=O)Oc2ccccc2)c(O)c2c1C[C@H]1C[C@H]3[C@H](N(C)C)C(O)=C(C(N)=O)C(=O)[C@@]3(O)C(O)=C1C2=O` [DT], for which the MIC in the assay on S. aureus RN450 (read-out: Antibiotic Activity Gram +) and in the assay on E. coli mL308 225 (read-out: Antibiotic Activity Gram −) was greater than 4 µg/mL each time.

For the compound `CN(C)c1ccc(-c2cc(I)c(O)c3c2C[C@H]2C[C@H]4[C@H](N(C)C)C(O)=C(C(N)=O)C(=O)[C@@]4(O)C(O)=C2C3=O)cc1`, the MIC is less than 4 µg/mL with S. aureus RN450 (setting [1]) and greater than 4 µg/mL with E. coli mL308 225 (setting [2]).

On to `CN(C)c1cc(CN2CCC(=O)CC2)c(O)c2c1C[C@H]1C[C@H]3[C@H](N(C)C)C(O)=C(C(N)=O)C(=O)[C@@]3(O)C(O)=C1C2=O`, for which the MIC in the assay with S. aureus RN450 (setting [1]) is less than 4 µg/mL; in the assay with E. coli mL308 225 (setting [2]) it was greater than 4 µg/mL.

`CN(C)[C@@H]1C(O)=C(C(N)=O)C(=O)[C@@]2(O)C(O)=C3C(=O)c4c(O)ccc(CC(Cl)C5=CCCCC5)c4C[C@H]3C[C@@H]12` (stereo partly shown): the MIC with S. aureus RN450 (setting [3]) and in the assay on E. coli mL308 225 (setting [4]) was less than 4 µg/mL in each case.

For `CN(C)c1cc(C(=O)N2CCOCC2)c(O)c2c1C[C@H]1C[C@H]3[C@H](N(C)C)C(O)=C(C(N)=O)C(=O)[C@@]3(O)C(O)=C1C2=O`, the MIC in the assay with S. aureus RN450 (setting [1]) and in the assay with E. coli mL308 225 (setting [2]) was greater than 4 µg/mL each time.

Consider `CN(C)[C@@H]1C(O)=C(C(N)=O)C(=O)[C@@]2(O)C(O)=C3C(=O)c4c(O)ccc(-c5cnc(N)nc5)c4C[C@H]3C[C@@H]12` [PF], for which the MIC with S. aureus RN450 (setting [5]) and in the assay on E. coli mL308 225 (setting [6]) was less than 4 µg/mL in each case.

As to `CN(C)[C@@H]1C(O)=C(C(N)=O)C(=O)[C@@]2(O)C(O)=C3C(=O)c4c(O)ccc(-c5cncnc5)c4C[C@H]3C[C@@H]12` [NL], the MIC in the assay on S. aureus RN450 (setting [5]) and in the assay on E. coli mL308 225 (setting [6]) was less than 4 µg/mL each time.
